Test results from ChEMBL document CHEMBL4842359, “1,3-Diarylpyrazolyl-acylsulfonamides as Potent Anti-tuberculosis Agents Targeting Cell Wall Biosynthesis in Mycobacterium tuberculosis” (J Med Chem, 2021).
Converted amounts (≈) assume the structure as drawn.

Legend:
[1] = Plasma protein binding in human assessed as unbound fraction at 5 uM by LC-MS/MS analysis; type: ADME, cell-free; conditions: 5 µM
[2] = Metabolic stability in mouse liver microsomes assessed as compound remaining at 1 uM by LC-MS/MS analysis; type: ADME, Microsome; conditions: microsomes, 1 µM
[3] = Metabolic stability in rat liver microsomes assessed as compound remaining at 1 uM by LC-MS/MS analysis; type: ADME, Microsome; conditions: microsomes, 1 µM
[4] = Metabolic stability in human liver microsomes assessed as compound remaining at 1 uM by LC-MS/MS analysis; type: ADME, Microsome; conditions: microsomes, 1 µM
[5] = system: Mycobacterium tuberculosis; experiment: microbe, parasite or virus in culture; conditions: H37Rv, 336 h
Description: Antimycobacterial activity against Mycobacterium tuberculosis H37Rv in presence of middlebrook 7H9/glucose/BSA/tyloxapol medium measured after 14 days by bioluminescence reporter assay

[6] = Unbound clearance in iv dosed C57BL/6 mouse measured up to 24 hrs by LC-MS/MS analysis; type: ADME, organism-based; conditions: in vivo
[7] = Thermodynamic solubility of compound at pH 7.4 aqueous phosphate buffer
[8] = Lipophilicity, logD of the compound at pH 7.4 by HPLC-DAD analysis; type: physicochemical; conditions: buffer
[9] = AUC (0 to t) in iv dosed C57BL/6 mouse measured up to 24 hrs by LC-MS/MS analysis; type: ADME, organism-based; design: time <=24; conditions: in vivo
[10] = Terminal half life in iv dosed C57BL/6 mouse measured up to 24 hrs by LC-MS/MS analysis; type: ADME, organism-based; conditions: mouse, in vivo, 24 h
[11] = Volume of distribution in iv dosed C57BL/6 mouse measured up to 24 hrs by LC-MS/MS analysis; type: ADME, organism-based; conditions: in vivo
[12] = system: Mycobacterium tuberculosis; experiment: microbe, parasite or virus in culture; conditions: H37RvMA, 336 h
Description: Antimycobacterial activity against Mycobacterium tuberculosis H37RvMA in presence of middlebrook 7H9/glucose/BSA/tyloxapol medium measured for 2 weeks by bioluminescence reporter assay

Row | SMILES | MIC [5] | solubility thermodynamic [7] | further results
1 | CS(=O)(=O)NC(=O)/C=C/c1cn(-c2ccc(Cl)cc2)nc1-c1ccncc1 | 4.7 µM (≈ 1.89 µg/mL) | 90 µM (≈ 36.3 µg/mL) | Fu [1]: 0.015 fraction; Stabilty [2]: 85%; Stabilty [3]: 82%; Stabilty [4]: 88%; CL free [6]: > 1200 L/h/kg; logD [8]: 0.98; AUCt [9]: 8.7 µmol·min/L; beta t1/2 [10]: 1.1 h
2 | CS(=O)(=O)NC(=O)CCc1cn(-c2ccc(C(F)(F)F)cc2)nc1-c1ccc(Cl)cc1 | 3.1 µM (≈ 1.46 µg/mL) | 50 µM (≈ 23.6 µg/mL) | 
3 | CS(=O)(=O)NC(=O)CCc1cc(-c2ccc(Br)cc2)n(-c2ccc(Cl)cc2)n1 | > 50 µM | 170 µM (≈ 82.1 µg/mL) | 
4 | O=c1[nH]c(CCc2cn(-c3ccc(Br)cc3)nc2-c2ccc(Cl)cc2)no1 | 50 µM (≈ 22.3 µg/mL) | < 5 µM | 
5 | O=C(O)CCc1cn(-c2ccc(Br)cc2)nc1-c1ccc(Cl)cc1 | > 50 µM | 155 µM (≈ 62.9 µg/mL) | 
6 | CC(Cc1cn(-c2ccc(Cl)cc2)nc1-c1ccncc1)C(=O)NS(C)(=O)=O (stereo unspecified) | > 50 µM | 190 µM (≈ 79.6 µg/mL) | 
7 | CS(=O)(=O)NC(=O)CCc1cn(-c2ccccc2)nc1-c1ccc(Cl)cc1 | > 50 µM | 200 µM (≈ 80.8 µg/mL) | 
8 | CS(=O)(=O)NC(=O)CCc1cn(-c2ccc(Br)cc2)nc1-c1ccccc1 | 2.3 µM (≈ 1.03 µg/mL) | 200 µM (≈ 89.7 µg/mL) | 
9 | CS(=O)(=O)NC(=O)CCc1cn(-c2ccc(Br)cc2)nc1-c1cnccn1 | 20 µM (≈ 9.01 µg/mL) | 196 µM (≈ 88.3 µg/mL) | 
10 | CCS(=O)(=O)NC(=O)CCc1cn(-c2ccc(Br)cc2)nc1-c1ccc(Cl)cc1 |  | 10 µM (≈ 4.97 µg/mL) | 
11 | CS(=O)(=O)NC(=O)CCc1cn(-c2cccc(Br)c2)nc1-c1ccc(Cl)cc1 | > 50 µM | < 5 µM | 
12 | CS(=O)(=O)NC(=O)CCc1cc(-c2ccc(Cl)cc2)nn1-c1ccc(F)cc1 | 5.5 µM (≈ 2.32 µg/mL) | 195 µM (≈ 82.3 µg/mL) | 
13 | CS(=O)(=O)NC(=O)CCc1cn(-c2ccc(C(F)(F)F)nc2)nc1-c1ccc(Cl)cc1 | 4.7 µM (≈ 2.22 µg/mL) | 90 µM (≈ 42.6 µg/mL) | Fu [1]: 0.036 fraction; Stabilty [2]: 94%; Stabilty [3]: 98%; Vd ([11]; mouse, 24 h): 8.7 L/kg; Stabilty [4]: 94%; CL free [6]: 112.3 L/h/kg; logD [8]: 1.87; AUCt [9]: 134 µmol·min/L; beta t1/2 [10]: 3 h
14 | O=c1[nH]nc(CCc2cn(-c3ccc(Br)cc3)nc2-c2ccc(Cl)cc2)o1 | 19 µM (≈ 8.47 µg/mL) | < 5 µM | 
15 | CS(=O)(=O)NC(=O)CCc1cn(-c2ccc(Br)cc2)nc1Cc1ccccc1 | > 50 µM | 200 µM (≈ 92.5 µg/mL) | 
16 | CS(=O)(=O)NC(=O)NCc1cc(-c2ccc(Br)cc2)oc1-c1ccncc1 |  | 25 µM (≈ 11.3 µg/mL) | Stabilty [2]: 85%; Stabilty [3]: 87%; Stabilty [4]: 98%; CL free [6]: > 1200 L/h/kg; logD [8]: 0.36; AUCt [9]: 20 µmol·min/L
17 | CS(=O)(=O)NC(=O)NCc1cn(-c2ccc(C(F)(F)F)nc2)nc1-c1ccncc1 |  | 195 µM (≈ 85.9 µg/mL) | 
18 | CS(=O)(=O)NC(=O)CCc1cn(-c2ccc(Br)cc2)nc1-c1ccc([N+](=O)[O-])cc1 |  | < 5 µM | 
19 | CS(=O)(=O)NC(=O)CCc1nn(-c2ccc(Br)cc2)cc1-c1ccc(Cl)cc1 | 37 µM (≈ 17.9 µg/mL) | 135 µM (≈ 65.2 µg/mL) | 
20 | C[S+]([O-])c1ccc(-n2cc(CCC(=O)NS(C)(=O)=O)c(-c3ccc(Cl)cc3)n2)cc1 (stereo unspecified) | ≥ 50 µM | 200 µM (≈ 93.2 µg/mL) | 
21 | CS(=O)(=O)NC(=O)OCc1cn(-c2ccc(Cl)cc2)nc1-c1ccncc1 | 123 µM (≈ 50 µg/mL) |  | Fu [1]: 0.03 fraction; Stabilty [2]: 98%; Stabilty [3]: 97%; Vd ([11]; C57BL/6, mouse, read-out: Vd): 0.1 L/kg; Stabilty [4]: 97%; CL free [6]: > 1200 L/h/kg; logD [8]: 2.73; AUCt [9]: 22 µmol·min/L; beta t1/2 [10]: 5.8 h
22 | CS(=O)(=O)NC(=O)CCCc1cn(-c2ccc(Br)cc2)nc1-c1ccc(Cl)cc1 | 37 µM (≈ 18.4 µg/mL) | 135 µM (≈ 67.1 µg/mL) | 
23 | CS(=O)(=O)NC(=O)CCn1nc(-c2ccc(Cl)cc2)cc1-c1ccc(Cl)cc1 | > 50 µM | 200 µM (≈ 87.7 µg/mL) | 
24 | CS(=O)(=O)NC(=O)C1CC1c1cn(-c2ccc(Cl)cc2)nc1-c1ccncc1 (stereo unspecified) | 19 µM (≈ 7.92 µg/mL) | 200 µM (≈ 83.4 µg/mL) | Fu [1]: 0.01 fraction; Stabilty [2]: 96%; Stabilty [3]: 92%; Stabilty [4]: > 99%; CL free [6]: > 1200 L/h/kg; logD [8]: 1.06; AUCt [9]: 21 µmol·min/L; beta t1/2 [10]: 0.9 h
25 | CS(=O)(=O)NC(=O)NCc1cn(-c2ccc(Cl)cc2)nc1-c1ccc(Cl)cc1 | 3.13 µM (≈ 1.38 µg/mL) | < 5 µM | 
26 | CC(CC(=O)NS(C)(=O)=O)c1cn(-c2ccc(Cl)cc2)nc1-c1ccncc1 (stereo unspecified) | 50 µM (≈ 20.9 µg/mL) | 170 µM (≈ 71.2 µg/mL) | 
27 | CN(C(=O)CCc1cn(-c2ccc(Br)cc2)nc1-c1ccc(Cl)cc1)S(C)(=O)=O | > 50 µM | < 5 µM | 

Row | SMILES | MIC [5] | solubility thermodynamic [7] | further results
28 | CS(=O)(=O)NC(=O)CCc1cn(C2CCCCC2)nc1-c1ccc(Cl)cc1 | > 50 µM | 200 µM (≈ 82 µg/mL) | 
29 | O=C1NC(=O)C(Cc2cn(-c3ccc(Cl)cc3)nc2-c2ccc(Cl)cc2)C(=O)N1 | > 50 µM |  | 
30 | CS(=O)(=O)NC(=O)CCc1oc(-c2ccc(Cl)cc2)nc1-c1ccc(Cl)cc1 | 37 µM (≈ 16.3 µg/mL) | 200 µM (≈ 87.9 µg/mL) | 
31 | CS(=O)(=O)NC(=O)CCc1cn(-c2ccc(Cl)cc2)nc1-c1ccccc1Cl | > 50 µM | 90 µM (≈ 39.5 µg/mL) | 
32 | CS(=O)(=O)NC(=O)CCc1cn(-c2ccc(Br)cc2)nc1-c1cccnc1 | 6.25 µM (≈ 2.81 µg/mL) | 200 µM (≈ 89.9 µg/mL) | Fu [1]: 0.022 fraction; Stabilty [2]: 94%; Stabilty [3]: 95%; Vd ([11]; mouse, 24 h): 28.1 L/kg; Stabilty [4]: 37%; CL free [6]: 485.5 L/h/kg; logD [8]: 0.84; AUCt [9]: 31 µmol·min/L; beta t1/2 [10]: 1.7 h
33 | CS(=O)(=O)NC(=O)CCc1cn(-c2ccc(Br)cc2)nc1C1CCCCC1 | 9.4 µM (≈ 4.27 µg/mL) | 60 µM (≈ 27.3 µg/mL) | 
34 | CS(=O)(=O)NC(=O)CCc1cn(-c2ccc(Br)cc2)nc1-c1cccc(Cl)c1 |  | 165 µM (≈ 79.7 µg/mL) | 
35 | CS(=O)(=O)NC(=O)CCc1cn(-c2ccccc2Br)nc1-c1ccc(Cl)cc1 | > 50 µM | 165 µM (≈ 79.7 µg/mL) | 
36 | CS(=O)(=O)NC(=O)CCc1cc(-c2ccc(Br)cc2)nn1-c1ccc(Cl)cc1 | 6.25 µM (≈ 3.02 µg/mL) | 200 µM (≈ 96.6 µg/mL) | Fu [1]: 0.01 fraction; Stabilty [2]: 91%; Stabilty [3]: 87%; Vd ([11]; mouse, 24 h): 1 L/kg; Stabilty [4]: > 99%; CL free [6]: 18.8 L/h/kg; logD [8]: 2.1; AUCt [9]: 1359 µmol·min/L; beta t1/2 [10]: 3.6 h
37 | CS(=O)(=O)NC(=O)C1CC1c1cn(-c2ccc(Br)cc2)nc1-c1ccncc1 (stereo unspecified) | 12.5 µM (≈ 5.77 µg/mL) | 155 µM (≈ 71.5 µg/mL) | 
38 | O=C(CCc1cn(-c2ccc(Br)cc2)nc1-c1ccc(Cl)cc1)NS(=O)(=O)C1CC1 | > 50 µM | 5 µM (≈ 2.54 µg/mL) | 
39 | CC(=O)NS(=O)(=O)CCc1cn(-c2ccc(Br)cc2)nc1-c1ccc(Cl)cc1 | > 50 µM | 165 µM (≈ 79.7 µg/mL) | 
40 | CS(=O)(=O)NC1=NOC(c2cn(-c3ccc(Cl)cc3)nc2-c2ccc(Cl)cc2)C1 (stereo unspecified) | 25 µM (≈ 11.3 µg/mL) | 175 µM (≈ 79 µg/mL) | 
41 | CS(=O)(=O)NC(=O)CCc1cn(-c2ccc(F)cc2)nc1-c1ccc(Cl)cc1 | 37 µM (≈ 15.6 µg/mL) | 25 µM (≈ 10.5 µg/mL) | 
42 | CS(=O)(=O)NC(=O)CCc1sc(-c2ccc(Cl)cc2)nc1-c1ccc(Cl)cc1 | 19 µM (≈ 8.65 µg/mL) | 90 µM (≈ 41 µg/mL) | 
43 | CS(=O)(=O)NC(=O)CCc1cn(-c2ccc(Br)cc2)nc1C1CCNCC1 | > 50 µM | 196 µM (≈ 89.3 µg/mL) | 
44 | CS(=O)(=O)NC(=O)Cc1cn(-c2ccc(Br)cc2)nc1-c1ccc(Cl)cc1 | > 50 µM |  | 
45 | CS(=O)(=O)NC(=O)CCc1cn(-c2ccc(Br)cc2)nc1-c1ccc(N)cc1 | 25 µM (≈ 11.6 µg/mL) | 160 µM (≈ 74.1 µg/mL) | 
46 | Clc1ccc(-c2nn(-c3ccc(Br)cc3)cc2CCc2nnn[nH]2)cc1 | > 50 µM | 150 µM (≈ 64.5 µg/mL) | 
47 | CS(=O)(=O)NC(=O)CCc1cn(-c2ccc(C#N)cc2)nc1-c1ccc(Cl)cc1 | 25 µM (≈ 10.7 µg/mL) | 75 µM (≈ 32.2 µg/mL) | 
48 | CS(=O)(=O)NCCCc1cn(-c2ccc(Br)cc2)nc1-c1ccc(Cl)cc1 | > 50 µM | < 5 µM | 
49 | CNC(=O)CCc1cn(-c2ccc(Br)cc2)nc1-c1ccc(Cl)cc1 | > 50 µM | < 5 µM | 
50 | CS(=O)(=O)NC(=O)/C=C/c1cn(-c2ccc(Br)cc2)nc1-c1ccncc1 | 12 µM (≈ 5.37 µg/mL) | 115 µM (≈ 51.4 µg/mL) | 
51 | CS(=O)(=O)NC(=O)CCc1cn(-c2ccc(Br)cc2)nc1C1CCOCC1 | 9.4 µM (≈ 4.29 µg/mL) | 200 µM (≈ 91.3 µg/mL) | Fu [1]: 0.07 fraction; Stabilty [2]: 77%; Stabilty [3]: 83%; Vd ([11]; mouse, 24 h): 29.3 L/kg; Stabilty [4]: 86%; CL free [6]: 124.3 L/h/kg; logD [8]: 0.55; AUCt [9]: 31 µmol·min/L; beta t1/2 [10]: 2.3 h
52 | CS(=O)(=O)NC(=O)CCc1cn(-c2ccncc2)nc1-c1ccc(Cl)cc1 | > 50 µM | 190 µM (≈ 76.9 µg/mL) | 
53 | CS(=O)(=O)NC(=O)CCc1cn(-c2ccc(Br)cc2)nc1C1CCN(C=O)CC1 | 50 µM (≈ 24.2 µg/mL) | 200 µM (≈ 96.7 µg/mL) | 
54 | CCc1cc(C(N)=S)ccn1 [ETHIONAMIDE] |  |  | MIC [12]: 15.6 µM (≈ 2.59 µg/mL)
